Read-outs that look alike come from different tables or passages of the source.
Tests used:
T1R1/T1R3 receptor [1] = target: T1, T1R1/T1R3 receptor (Felis catus, UniProt E3UMS2); experiment: Activation of T1R1/T1R3 receptor by transmembrane compounds and nucleotide derivatives, conducted as in Examples 1, 2 and 5 (Example 7); assay type: cell-based, cat; details: for EC50: read-out: T1R1/T1R3 EC50; for Max resp % of IMP +Alanine (20 mM): hek293 cells; for Activity: modulation of T1R1/T1R3
Text: (§1) Methods: HEK293 cells that stably express T1R3 and inducibly express T1R1 were exposed to nucleotide derivatives alone to activate the umami receptor. Activation of the T1R1/T1R3 receptor was detected by a change in intracellular calcium levels using a calcium sensitive fluorescent dye. Cells that express T1R3 but not T1R1 were used as a control. A FLIPR® Tetra or a FlexStation® 3 was used for data capture.
as §1, with “alone or in combination with one or more amino acids and/or one or more nucleotides” for “alone”, “dye and/or a luminescent reporter system.” for “dye.”
as §1, with “transmembrane compounds” for “nucleotide derivatives”, “alone or in combination with one or more amino acids and/or one or more nucleotides” for “alone”
(§2) In each experiment, serial dilutions of up to 10 mM of the transmembrane compound were added to the T1R1/T1R3-expressing cells.

T1R1/T1R3 receptor [2] = target: T1, T1R1/T1R3 receptor; experiment: Activation of T1R1/T1R3 receptor by transmembrane compounds alone or with alanine, IMP, GMP, phenylalanine; HEK293 cells, calcium fluorescence (Example 5); assay type: cell-based, cat; details: for Max resp % of IMP +Alanine (20 mM): relative to IMP; for Thres +Alanine (20 mM) / Thres +IMP (0.2 mM): threshold concentration; for Max resp % of Ala +IMP (0.2 mM): relative to Ala; for Activity: Table 18, all transmembrane compounds tested, active / N/A (not active)
Text: as §1, with “transmembrane compounds” for “nucleotide derivatives”, “alone or in combination with one or more amino acids and/or one or more nucleotides” for “alone”
as §2

SMILES	+Alanine (20 mM) Max resp % of IMP (T1R1/T1R3 receptor [2])	+Alanine (20 mM) Max resp ΔF/F (T1R1/T1R3 receptor [2])	+Alanine (20 mM) Thres (T1R1/T1R3 receptor [2]) [mM]	Max resp % of IMP +Alanine (20 mM) (T1R1/T1R3 receptor [2]) [%]	Thres +Alanine (20 mM) (T1R1/T1R3 receptor [2]) [mM]	+IMP (0.2 mM) Max resp % of Ala (T1R1/T1R3 receptor [2])	Max resp ΔF/F +IMP (0.2 mM) (T1R1/T1R3 receptor [2])	Max resp % of Ala +IMP (0.2 mM) (T1R1/T1R3 receptor [2]) [%]	Thres +IMP (0.2 mM) (T1R1/T1R3 receptor [2]) [mM]	Activity (T1R1/T1R3 receptor [2])	further results
CC(C)CC(NC(=O)c1ccccc1)C(N)=O (racemic)	–	–	–	–	–	–	–	–	–	–	Max resp ΔF/F +Alanine (20 mM) (T1R1/T1R3 receptor [1]): 0.8600 ΔF/F; Thres +Alanine (20 mM) (T1R1/T1R3 receptor [1]): 0.3 mM; EC50 (T1R1/T1R3 receptor [1]; +0.2 mM IMP): 470 ± 70 µM; Max resp % of Ala +IMP (0.2 mM) (T1R1/T1R3 receptor [1]): 204.5 % of Ala; Max resp ΔF/F +IMP (0.2 mM) (T1R1/T1R3 receptor [1]): 1.5900 ΔF/F; Thres +IMP (0.2 mM) (T1R1/T1R3 receptor [1]): 0.1 mM; EC50 (T1R1/T1R3 receptor [1]; alone in buffer): > 600 µM; Max resp % of IMP +Alanine (20 mM) (T1R1/T1R3 receptor [1]): 125.5 % of IMP; Activity (T1R1/T1R3 receptor [1]): active; EC50 (T1R1/T1R3 receptor [1]): > 1000 µM
O=C(O)C1CCCCC1C(=O)Nc1cc(Cl)cc(Cl)c1 (stereo not drawn) [2-((3,5-dichlorophenyl)carbamoyl)cyclohexanecarboxylic acid]	–	–	–	–	–	–	–	–	–	–	Max resp ΔF/F +Alanine (20 mM) (T1R1/T1R3 receptor [1]): 1.1200 ΔF/F; Thres +Alanine (20 mM) (T1R1/T1R3 receptor [1]): 0.1 mM; Max resp % of Ala +IMP (0.2 mM) (T1R1/T1R3 receptor [1]): 157.9 % of Ala; Max resp ΔF/F +IMP (0.2 mM) (T1R1/T1R3 receptor [1]): 1.2275 ΔF/F; Thres +IMP (0.2 mM) (T1R1/T1R3 receptor [1]): 0.03 mM; Max resp % of IMP +Alanine (20 mM) (T1R1/T1R3 receptor [1]): 163.5 % of IMP; Activity (T1R1/T1R3 receptor [1]): active
Nc1ccccc1C(=O)NCCc1ccccc1 [2-amino-N-phenethylbenzamide]	–	–	–	–	–	–	–	–	–	–	Max resp ΔF/F +Alanine (20 mM) (T1R1/T1R3 receptor [1]): 0.6400 ΔF/F; Thres +Alanine (20 mM) (T1R1/T1R3 receptor [1]): 0.3 mM; Max resp % of Ala +IMP (0.2 mM) (T1R1/T1R3 receptor [1]): 194.5 % of Ala; Max resp ΔF/F +IMP (0.2 mM) (T1R1/T1R3 receptor [1]): 1.5125 ΔF/F; Thres +IMP (0.2 mM) (T1R1/T1R3 receptor [1]): 0.01 mM; Max resp % of IMP +Alanine (20 mM) (T1R1/T1R3 receptor [1]): 93.4 % of IMP; Activity (T1R1/T1R3 receptor [1]): active
CCC(CC)NC(=O)c1ccc(Br)o1 [5-bromo-N-(pentan-3-yl)furan-2-carboxamide]	126.8 % of IMP	1.575 ΔF/F	1	126.8	1	149.6 % of Ala	1.8425 ΔF/F	149.6	0.3	active	–
CCCC(C)NC(=O)/C=C/c1ccc(OC)c(OC)c1 (stereo not drawn) [(E)-3-(3,4-dimethoxyphenyl)-N-(pentan-2-yl)acrylamide; (2E)-3-(3,4-dimethoxyphenyl)-N-(pentan-2-yl)prop-2-enamide]	35.2 % of IMP	0.4375 ΔF/F	1	–	–	86.9 % of Ala	–	–	–	–	–
CCCC(C)NC(=O)/C=C/c1ccc(OC)c(OC)c1 (stereo not drawn) [(E)-3-(3,4-dimethoxyphenyl)-N-(pentan-2-yl)acrylamide]	–	–	–	35.2	1	–	1.07 ΔF/F	86.9	0.55	active	–
COc1ccc(/C=C/C(=O)NC2CCCCC2C)cc1 (stereo not drawn) [(E)-3-(4-methoxyphenyl)-N-(2-methylcyclohexyl) acrylamide]	63.2 % of IMP	0.785 ΔF/F	3	63.2	3	144.0 % of Ala	1.7725 ΔF/F	144.0	0.3	active	–
CCC(CC)NC(=O)/C=C/c1ccc(OC)cc1 [(E)-3-(4-methoxyphenyl)-N-(pentan-3-yl)acrylamide]	64.1 % of IMP	0.7 ΔF/F	0.148	64.1	0.148	171.7 % of Ala	1.443 ΔF/F	171.7	0.0375	active	–
COC(=O)C(NC(=O)/C=C/c1cccs1)C(C)C (stereo not drawn) [(E)-methyl 3-methyl-2-(3-(thiophen-2-yl)acrylamido)butanoate]	9.5 % of IMP	0.1175 ΔF/F	10	9.5	10	59.9 % of Ala	0.7375 ΔF/F	59.9	1	active	–
O=C(NCCc1ccccc1)C(=O)NCc1cccnc1 [N1-phenethyl-N2-(pyridin-3-ylmethyl)oxalamide; N-(2-phenylethyl)-N′-(pyridin-3-ylmethyl)ethanediamide]	30.2 % of IMP	0.3750 ΔF/F	1	–	–	61.9 % of Ala	–	–	–	–	–
O=C(NCCc1ccccc1)C(=O)NCc1cccnc1 [N1-phenethyl-N2-(pyridin-3-ylmethyl)oxalamide]	–	–	–	30.2	1	–	0.7625 ΔF/F	61.9	0.1	active	–
CC1CCCC(NC(=O)c2ccc3c(c2)OCO3)C1C (stereo not drawn) [N-(2,3-dimethylcyclohexyl) benzo[d][1,3]dioxole-5-carboxamide]	18.1 % of IMP	0.225 ΔF/F	3	18.1	3	95.4 % of Ala	1.175 ΔF/F	95.4	0.275	active	–
COc1cc(C(=O)NC(C(N)=O)c2ccccc2)cc(Cl)c1OC (stereo not drawn) [N-(2-amino-2-oxo-1-phenylethyl)-3-chloro-4,5-dimethoxybenzamide]	–	–	–	–	–	49.4 % of Ala	0.415 ΔF/F	49.4	0.17	active	activation of T1R1/T1R3 by the transmembrane compound alone (in words) (T1R1/T1R3 receptor [2]): failed to activate
CCCC(CCC)C(=O)Nc1ccc2c(c1)OCO2 [N-(benzo[d][1,3]dioxol-5-yl)-2-propylpentanamide]	–	–	–	–	–	108.0 % of Ala	0.908 ΔF/F	108.0	0.0675	active	activation of T1R1/T1R3 by the transmembrane compound alone (in words) (T1R1/T1R3 receptor [2]): function as an agonist
CCC(CC)NC(=O)c1ccc2c(c1)OCCO2 [N-(pentan-3-yl)-2,3-dihydrobenzo[b][1,4]dioxine-6-carboxamide]	25.2 % of IMP	0.3125 ΔF/F	0.3	25.2	0.3	70.9 % of Ala	0.8725 ΔF/F	70.9	0.075	active	–
CCOC(=O)C(NC(=O)c1ccc2c(c1)OCO2)C(C)C (stereo not drawn) [ethyl 2-(benzo[d][1,3]dioxole-5-carboxamido)-3-methylbutanoate]	25.6 % of IMP	0.3175 ΔF/F	10	25.6	10	52.8 % of Ala	0.65 ΔF/F	52.8	1	active	–

Source: US11185100B2 (priority 2014, dated 2021)
